Results published in PMC3303072 (Cell Biology and Toxicology, 2012).
Like-named read-outs stand apart in the source and are kept apart here.

Columns and labels:
CYP1A2 = details: human
HepG2 cells [1] = type: cell-based, human; details: control (DMSO) vs induced, 24 h; for Number of differentially expressed probes, Down: fold change <-2, 1,250 probes; for Number of differentially expressed probes, Up: fold change >2, 1,250 probes; for Number of differentially expressed probes, Either: fold change >2 or <-2, 1,250 probes
HepaRG cells [2] = type: cell-based, human; details: control (DMSO) vs induced, 24 h; for Number of differentially expressed probes, Down: fold change <-2, 1,250 probes; for Number of differentially expressed probes, Up: fold change >2, 1,250 probes; for Number of differentially expressed probes, Either: fold change >2 or <-2, 1,250 probes
[3] = tested on: primary human hepatocytes; type: cell-based; details: control (DMSO) vs induced, 24 h, 1,250 probes; for Number of differentially expressed probes, Down: fold change <-2; for Number of differentially expressed probes, Up: fold change >2; for Number of differentially expressed probes, Either: fold change >2 or <-2
CYP3A4 = details: human
in vitro [4] = details: human, Cytotoxicity class by LC50
HepaRG cells [5] = details: xCELLigence cell index, LC50 after 48 and 72 h
HepG2 cells [6] = details: xCELLigence cell index, LC50 after 48 and 72 h
[7] = tested on: cryopreserved human hepatocytes; details: for Cytotoxicity class by LC50: cryopreserved HH (3 donors), xCELLigence cell index, LC50 after 48 and 72 h; for Cytotoxicity (in words): cryopreserved HH compared with HepG2 and HepaRG, xCELLigence
[8] = read-out: Cmax (the maximum concentration of a drug in the blood after dosing); in vivo studies; cited from earlier work
[9] = 100 mM stock in 100% DMSO; a 50 mM stock was prepared instead
in vitro [10] = details: human, Cytotoxicity class by LC50; remark: listed apart in the source
in vitro [11] = details: human, Cytotoxicity class by LC50; remark: listed apart in the source

Compound: O=c1cc(-c2ccccc2)oc2ccc3ccccc3c12 [BNF, beta-naphthoflavone]
- Fold increase in CYP1A2 activity (CYP1A2): 9.1 fold
- Number of differentially expressed probes, Down (HepG2 cells [1]): 61
- Number of differentially expressed probes, Up (HepG2 cells [1]): 31
- Number of differentially expressed probes, Either (HepG2 cells [1]): 92
- Number of differentially expressed probes, Down (HepaRG cells [2]): 25
- Number of differentially expressed probes, Up (HepaRG cells [2]): 106
- Number of differentially expressed probes, Either (HepaRG cells [2]): 131
- Number of differentially expressed probes, Down ([3]; HH1): 50
- Number of differentially expressed probes, Up ([3]; HH1): 74
- Number of differentially expressed probes, Either ([3]; HH1): 124
- Number of differentially expressed probes, Down ([3]; HH2): 81
- Number of differentially expressed probes, Up ([3]; HH2): 64
- Number of differentially expressed probes, Either ([3]; HH2): 145
- Number of differentially expressed probes, Down ([3]; HH3): 35
- Number of differentially expressed probes, Up ([3]; HH3): 51
- Number of differentially expressed probes, Either ([3]; HH3): 86

Compound: CCC1(c2ccccc2)C(=O)NC(=O)NC1=O [PB, phenobarbital]
- Number of differentially expressed probes, Down (HepG2 cells [1]): 60
- Number of differentially expressed probes, Up (HepG2 cells [1]): 17
- Number of differentially expressed probes, Either (HepG2 cells [1]): 77
- Number of differentially expressed probes, Down (HepaRG cells [2]): 25
- Number of differentially expressed probes, Up (HepaRG cells [2]): 35
- Number of differentially expressed probes, Either (HepaRG cells [2]): 60
- Effect on CYP2B6 activity (CYP2B6): did not have any effect
- Fold increase in CYP3A4 activity (CYP3A4): 36.6 times
- Number of differentially expressed probes, Down ([3]; HH1): 44
- Number of differentially expressed probes, Up ([3]; HH1): 46
- Number of differentially expressed probes, Either ([3]; HH1): 90
- Number of differentially expressed probes, Down ([3]; HH2): 121
- Number of differentially expressed probes, Up ([3]; HH2): 39
- Number of differentially expressed probes, Either ([3]; HH2): 160
- Number of differentially expressed probes, Down ([3]; HH3): 29
- Number of differentially expressed probes, Up ([3]; HH3): 76
- Number of differentially expressed probes, Either ([3]; HH3): 105

Compound: CO[C@H]1/C=C/O[C@@]2(C)Oc3c(C)c(O)c4c(O)c(c(/C=N/N5CCN(C)CC5)c(O)c4c3C2=O)NC(=O)/C(C)=C\C=C\[C@H](C)[C@H](O)[C@@H](C)[C@@H](O)[C@@H](C)[C@H](OC(C)=O)[C@@H]1C [RIF, rifampicin]
- Number of differentially expressed probes, Down (HepG2 cells [1]): 22
- Number of differentially expressed probes, Up (HepG2 cells [1]): 27
- Number of differentially expressed probes, Either (HepG2 cells [1]): 49
- Number of differentially expressed probes, Down (HepaRG cells [2]): 22
- Number of differentially expressed probes, Up (HepaRG cells [2]): 41
- Number of differentially expressed probes, Either (HepaRG cells [2]): 63
- Number of differentially expressed probes, Down ([3]; HH1): 61
- Number of differentially expressed probes, Up ([3]; HH1): 26
- Number of differentially expressed probes, Either ([3]; HH1): 87
- Number of differentially expressed probes, Down ([3]; HH2): 49
- Number of differentially expressed probes, Up ([3]; HH2): 39
- Number of differentially expressed probes, Either ([3]; HH2): 88
- Number of differentially expressed probes, Down ([3]; HH3): 22
- Number of differentially expressed probes, Up ([3]; HH3): 59
- Number of differentially expressed probes, Either ([3]; HH3): 81

Compound: CCCCc1oc2ccccc2c1C(=O)c1cc(I)c(OCCN(CC)CC)c(I)c1 [amiodarone]
- CC50 (in vitro [4]): < 10 µM

Compound: CC(=O)Oc1ccccc1C(=O)O [aspirin]
- Cytotoxicity class by LC50 (HepaRG cells [5]): non cytotoxic
- Cytotoxicity class by LC50 (HepG2 cells [6]): non cytotoxic
- Cytotoxicity class by LC50 [7]: non cytotoxic

Compound: CCOC(=O)C(C)(C)Oc1ccc(Cl)cc1 [clofibrate]
- Cytotoxicity class by LC50 (HepaRG cells [5]): non cytotoxic
- Cytotoxicity class by LC50 (HepG2 cells [6]): non cytotoxic
- Cytotoxicity class by LC50 [7]: non cytotoxic

Compound: C#C[C@]1(O)CC[C@H]2[C@@H]3CCC4=Cc5oncc5C[C@]4(C)[C@H]3CC[C@@]21C [danazol]
- Cmax [8]: 160 nM

Compound: CC(C)C(=O)Nc1ccc([N+](=O)[O-])c(C(F)(F)F)c1 [flutamide]
- Cytotoxicity (in words) [7]: induced cytotoxicity in HH only

Compound: CC(=O)N1CCN(c2ccc(OCC3COC(Cn4ccnc4)(c4ccc(Cl)cc4Cl)O3)cc2)CC1 (stereo not shown) [ketoconazole]
- Solubility of stock solution [9]: solubility problems occurred at 100 mM
- Cytotoxicity (in words) [7]: induced cytotoxicity in HH only

Compound: CC(CCc1ccccc1)NCC(O)c1ccc(O)c(C(N)=O)c1 (stereo not shown) [labetalol]
- Cytotoxicity (in words) [7]: induced cytotoxicity in HH only

Compound: Nc1c2c(nc3ccccc13)CCCC2 [tacrine]
- CC50 (in vitro [4]): 50 to 100 µM

Compound: CC/C(=C(\c1ccccc1)c1ccc(OCCN(C)C)cc1)c1ccccc1 [tamoxifen]
- CC50 (in vitro [10]): 10 to 50 µM
- CC50 (in vitro [11]): 10 to 50 µM
- CC50 (in vitro [4]): < 10 µM
